From ChEMBL document CHEMBL1201862, “PubChem BioAssay data set” (2004)
Activity calls are given as the source filed them.

Experiments:
[1] = target: Dual specificity protein phosphatase 3 (Homo sapiens, UniProt P51452); experiment: SAR VHR1 Fluorescent Assay for In Vitro dose response studies Set 2. [Related pubchem assays (depositor defined):AID1654, AID1661, AID1878]; type: functional
[2] = target: T1, Tyrosine-protein phosphatase non-receptor type 7 (Homo sapiens, UniProt P35236); experiment: SAR analysis of chemical inhibitors of HePTP using a Fluorescent assay - Set 2. [Related pubchem assays (depositor defined):AID1059, AID1077, AID1661, AID2085, AID521]; type: functional
T1 sequence (P35236 whole entry): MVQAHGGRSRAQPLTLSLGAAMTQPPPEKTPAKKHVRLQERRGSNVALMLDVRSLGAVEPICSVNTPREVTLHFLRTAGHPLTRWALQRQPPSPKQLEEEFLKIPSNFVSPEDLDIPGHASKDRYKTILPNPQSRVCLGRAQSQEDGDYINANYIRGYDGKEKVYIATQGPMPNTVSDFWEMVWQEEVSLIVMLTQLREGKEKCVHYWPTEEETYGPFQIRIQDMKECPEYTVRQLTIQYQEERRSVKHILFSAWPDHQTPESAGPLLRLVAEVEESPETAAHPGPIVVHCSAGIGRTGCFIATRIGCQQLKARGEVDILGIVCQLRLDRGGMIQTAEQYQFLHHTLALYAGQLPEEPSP

[3] = target: DNA damage-inducible transcript 3 protein (Mus musculus, UniProt P35639); type: functional, Cricetulus griseus
[4] = Luminescence Cell-Based Dose Response HTS to Identify Inhibitors of 5'UTR Stem-Loop Driven Prion Protein mRNA Translation in H4 Neuroglioblastoma Cells. [Related pubchem assays: 1827 (Project Summary), 1813 (Primary HTS)]; type: functional
[5] = HEK-293T viability loss after treatment – luminescence, T-cell screen hits, cytotoxicity control for TCR NF-kB inhibitor project, dose response (AID 489026); type: functional, cell-based;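 further: cells exposed to compound about 14 hours before the viability readout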
[6] = HPDE-C7 pancreatic duct cell viability loss – fluorescence, HTS (AID 430); type: functional, cell-based; details: Homo sapiens
J774.A1 = experiment: Confirmation of image-based Screening Assay for Inhibitors of Phagocytosis. [Related pubchem assays (depositor defined):AID1029, AID1643]; type: functional, cell-based; details: Mus musculus
[7] = luciferase reporter signal reduction – luminescence, H4-C neuroglioblastoma cells, dose response (AID 2458); type: functional, cell-based;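 further: H4 neuroglioblastoma cells stably carrying a luciferase reporter gene fusion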
cells = type: functional, cell-based
[8] = IC50 of Artemis nuclease activity blockers – biochemical, fluorescence intensity, dose response (AID 720701); type: functional;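 further: Artemis endonuclease enzyme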
[9] = alpha-synuclein stem-loop translation blockers – luminescence, H4 neuroglioblastoma cells, dose confirmation, confirmation (AID 2454); type: functional, cell-based;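 further: H4 neuroglioblastoma cells carrying an alpha-synuclein 5'UTR luciferase reporter; potency for inhibition of the luciferase signal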
[10] = alpha-synuclein stem-loop luciferase translation blockers – H4 neuroglioma cells, luminescence, confirmation (AID 1988); type: functional, cell-based
[11] = viability loss of HPDE-C7K cells – cell-based, fluorescence, HTS, primary screen (AID 431); type: functional; details: Homo sapiens
[12] = luciferase reporter signal suppression in cells – H4 neuroglioma cells, luminescence, dose response (AID 1990); type: functional, cell-based
[13] = Luminescence Cell-Based Dose Retest to Confirm Inhibitors of Cancer Stem Cells. [Related pubchem assays (depositor defined):AID2717, AID2721]; type: functional, Homo sapiens; details: Homo sapiens
Integrin alpha-4 = Integrin alpha-4 (Homo sapiens, UniProt P13612); experiment: allosteric modulators of alpha4 integrin VLA-4 – cell-based, LIBS antibody binding, flow cytometry, SAR follow-up (AID 488791); type: functional
[14] = target: T2, Ubiquitin-conjugating enzyme E2 N (Homo sapiens, UniProt P61088); type: functional;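 further: Dose-response confirmation in a TR-FRET assay detecting UBC13-driven polyubiquitin chain formation, inhibition measured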
T2 sequence (P61088 whole entry): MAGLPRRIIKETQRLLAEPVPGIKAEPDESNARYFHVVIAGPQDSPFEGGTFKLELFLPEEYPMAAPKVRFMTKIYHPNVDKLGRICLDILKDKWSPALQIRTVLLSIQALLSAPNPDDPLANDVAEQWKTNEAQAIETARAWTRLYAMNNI

[15] = target: Dual specificity tyrosine-phosphorylation-regulated kinase 1A (Rattus norvegicus, UniProt Q63470); type: biochemical, Homo sapiens
Troponin, cardiac muscle = Troponin, cardiac muscle (Homo sapiens, UniProt P19429+P45379+P63316); experiment: Fluorescence-based biochemical high throughput dose response assay for activators of the calcium sensitivity of cardiac Regulated Thin Filaments (RTF). [Related pubchem assays (depositor defined):AID493008, AID493018, AID504382, AID504383]; type: protein-complex assay
[16] = target: T3, G-protein coupled receptor 35 (Homo sapiens, UniProt Q9HC97); experiment: SAR analysis of Antagonists of the GPR35 Receptor using an Image-Based Assay - Set 4. [Related pubchem assays (depositor defined):[…]]; type: functional
[17] = target: T4, G-protein coupled receptor 55 (Homo sapiens, UniProt Q9Y2T6); experiment: SAR analysis of selective Agonists of GPR55 using an Image-Based Assay - Set 2. [Related pubchem assays (depositor defined):AID1961, AID1965]; type: functional
Cannabinoid receptor 2 [18] = target: T5, Cannabinoid receptor 2 (Homo sapiens, UniProt P34972); experiment: SAR analysis of agonists of the Cannabinoid Receptor 2 using an Image-Based Assay - Set 2. [Related pubchem assays (depositor defined):AID1961, AID1965]; type: functional
[19] = target: T3, G-protein coupled receptor 35; experiment: SAR analysis of Agonists of the GPR35 Receptor using an Image-Based Assay - Set 3. [Related pubchem assays (depositor defined):AID1961, AID1965]; type: functional
Cannabinoid receptor 1 [20] = target: T6, Cannabinoid receptor 1 (Homo sapiens, UniProt P21554); experiment: SAR analysis of antagonists of the Cannabinoid Receptor 1 using an Image-Based Assay - Set 3. [Related pubchem assays (depositor defined):AID1961, AID1965]; type: functional
Cannabinoid receptor 1 [21] = target: T6, Cannabinoid receptor 1; experiment: SAR analysis of agonists of the Cannabinoid Receptor 1 using an Image-Based Assay - Set 3. [Related pubchem assays (depositor defined):AID1961, AID1965]; type: functional
Cannabinoid receptor 2 [22] = target: T5, Cannabinoid receptor 2; experiment: SAR analysis of antagonists of the Cannabinoid Receptor 2 using an Image-Based Assay - Set 2. [Related pubchem assays (depositor defined):AID1961, AID1965]; type: functional
Streptokinase A = target: T7, Streptokinase A (Streptococcus pyogenes serotype M1, UniProt P10520); experiment: viability-normalized secreted streptokinase activity reduction – plasminogen activation absorbance, OD405, dose response (AID 1914); type: functional, Streptococcus pyogenes M1 GAS;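 further: secreted streptokinase activity via plasminogen activation per viability signal from cell pellet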
T7 sequence (P10520 whole entry): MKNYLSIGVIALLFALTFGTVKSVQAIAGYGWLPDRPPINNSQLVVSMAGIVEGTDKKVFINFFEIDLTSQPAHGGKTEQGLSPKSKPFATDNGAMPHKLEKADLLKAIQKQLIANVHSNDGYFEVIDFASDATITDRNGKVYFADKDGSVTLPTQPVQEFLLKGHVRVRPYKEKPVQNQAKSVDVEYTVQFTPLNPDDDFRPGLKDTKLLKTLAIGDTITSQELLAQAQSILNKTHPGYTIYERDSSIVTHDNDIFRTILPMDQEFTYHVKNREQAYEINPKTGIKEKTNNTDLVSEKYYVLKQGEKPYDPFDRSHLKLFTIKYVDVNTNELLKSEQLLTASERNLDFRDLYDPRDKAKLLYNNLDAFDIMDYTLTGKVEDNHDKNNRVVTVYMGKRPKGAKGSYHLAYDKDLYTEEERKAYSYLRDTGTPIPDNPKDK

[23] = target: T4, G-protein coupled receptor 55; experiment: inhibition of LPI-stimulated GPR55 beta-arrestin translocation – imaging, U2OS, beta-arrestin-GFP, LPI agonist, primary screen (AID 2013); type: functional;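 further: antagonist potency measured as reduced agonist-driven arrestin aggregation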
[24] = system: Streptococcus sp. 'group A'; experiment: Streptococcus pyogenes SK(-)GAS viability under kanamycin – luminescence, BacTiterGlo, confirmation, counter-screen for streptokinase expression inhibitor project, dose response (AID 1900); type: functional, organism-based; details: Streptococcus sp. 'group A'
Streptococcus = experiment: GAS UMAA2166 growth inhibition – luminescence, BacTiterGlo, counter-screen for streptokinase expression inhibitor project, dose response (AID 1915); type: functional, organism-based; details: Streptococcus;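 further: potency for reduction of bacterial viability or growth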
Hexokinase = Hexokinase (Trypanosoma brucei, UniProt Q38C41); experiment: Confirmation assay for inhibitors of Trypanosoma brucei hexokinase 1-Analogue-first series. [Related pubchem assays (depositor defined):AID1430, AID1632, AID2516, AID2560, AID2579, AID2600, AID449725, AID492951]; type: functional
CAAX prenyl protease 2 [25] = target: T8, CAAX prenyl protease 2 (Homo sapiens, UniProt Q9Y256); experiment: inhibition of Ras-converting CAAX protease Rce1 – biochemical, yeast membranes, quenched-peptide fluorescence, cherry-pick, dose response (AID 588849)
T8 sequence (Q9Y256 whole entry): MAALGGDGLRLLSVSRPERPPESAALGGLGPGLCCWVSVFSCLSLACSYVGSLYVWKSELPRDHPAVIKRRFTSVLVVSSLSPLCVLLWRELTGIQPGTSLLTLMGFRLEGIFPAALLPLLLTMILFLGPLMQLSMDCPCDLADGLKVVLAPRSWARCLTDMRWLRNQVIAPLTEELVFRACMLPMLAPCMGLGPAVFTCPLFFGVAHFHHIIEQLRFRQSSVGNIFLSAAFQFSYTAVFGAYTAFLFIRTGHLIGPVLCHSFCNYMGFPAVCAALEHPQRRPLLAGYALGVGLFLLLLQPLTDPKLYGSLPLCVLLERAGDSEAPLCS

CAAX prenyl protease 2 [26] = target: CAAX prenyl protease 2 (Saccharomyces cerevisiae S288c, UniProt Q03530); type: biochemical
Coagulation factor XII = target: T9, Coagulation factor XII (Homo sapiens, UniProt P00748); experiment: Factor XIIa Dose Response Confirmation from Single Well HTS. [Related pubchem assays (depositor defined):AID701]; type: functional
T9 sequence (P00748 whole entry): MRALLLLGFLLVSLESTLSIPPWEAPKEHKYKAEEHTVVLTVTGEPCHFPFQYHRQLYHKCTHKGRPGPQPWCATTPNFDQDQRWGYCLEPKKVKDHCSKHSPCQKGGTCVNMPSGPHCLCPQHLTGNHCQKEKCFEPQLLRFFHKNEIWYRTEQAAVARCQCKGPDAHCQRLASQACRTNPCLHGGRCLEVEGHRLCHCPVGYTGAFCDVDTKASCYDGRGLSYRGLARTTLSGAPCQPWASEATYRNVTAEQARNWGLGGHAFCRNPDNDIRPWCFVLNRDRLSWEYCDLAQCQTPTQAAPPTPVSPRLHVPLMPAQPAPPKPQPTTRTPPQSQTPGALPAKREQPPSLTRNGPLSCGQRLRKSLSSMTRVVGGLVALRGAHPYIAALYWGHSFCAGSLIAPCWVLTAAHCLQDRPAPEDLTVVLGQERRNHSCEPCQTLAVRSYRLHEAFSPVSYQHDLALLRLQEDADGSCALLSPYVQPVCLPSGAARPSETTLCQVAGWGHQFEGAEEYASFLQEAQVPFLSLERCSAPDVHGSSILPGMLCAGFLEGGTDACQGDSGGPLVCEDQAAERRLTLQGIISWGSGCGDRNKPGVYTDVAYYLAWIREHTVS

[27] = target: Type-1 angiotensin II receptor (Homo sapiens, UniProt P30556); experiment: agonist activity at AGTR1 – cell-based, uHTS hits, selectivity assay for APJ receptor agonist project, dose response (AID 488865); type: functional;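 further: beta-arrestin recruitment to AT1 measured by enzyme fragment complementation luminescence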
Sequence of Type-1 angiotensin II receptor (P30556 whole entry, the tested form may be a part): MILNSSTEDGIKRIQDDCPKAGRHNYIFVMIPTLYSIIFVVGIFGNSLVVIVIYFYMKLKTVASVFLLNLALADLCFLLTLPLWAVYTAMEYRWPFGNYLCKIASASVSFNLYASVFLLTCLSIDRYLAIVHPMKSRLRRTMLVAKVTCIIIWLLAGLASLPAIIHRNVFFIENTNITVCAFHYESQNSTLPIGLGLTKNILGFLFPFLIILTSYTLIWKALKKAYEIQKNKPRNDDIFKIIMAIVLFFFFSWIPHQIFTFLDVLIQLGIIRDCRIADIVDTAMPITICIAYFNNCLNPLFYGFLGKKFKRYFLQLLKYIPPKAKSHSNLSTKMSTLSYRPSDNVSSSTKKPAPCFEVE

T3 sequence (Q9HC97 whole entry): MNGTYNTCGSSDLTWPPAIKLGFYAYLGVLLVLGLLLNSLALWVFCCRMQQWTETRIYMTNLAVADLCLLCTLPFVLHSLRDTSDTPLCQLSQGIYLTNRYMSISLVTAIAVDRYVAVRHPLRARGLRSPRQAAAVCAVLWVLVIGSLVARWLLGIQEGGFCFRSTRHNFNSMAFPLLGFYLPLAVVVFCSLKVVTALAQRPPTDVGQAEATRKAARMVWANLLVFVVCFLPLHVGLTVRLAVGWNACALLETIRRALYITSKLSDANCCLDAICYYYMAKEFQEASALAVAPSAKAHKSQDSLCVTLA
T6 sequence (P21554 whole entry): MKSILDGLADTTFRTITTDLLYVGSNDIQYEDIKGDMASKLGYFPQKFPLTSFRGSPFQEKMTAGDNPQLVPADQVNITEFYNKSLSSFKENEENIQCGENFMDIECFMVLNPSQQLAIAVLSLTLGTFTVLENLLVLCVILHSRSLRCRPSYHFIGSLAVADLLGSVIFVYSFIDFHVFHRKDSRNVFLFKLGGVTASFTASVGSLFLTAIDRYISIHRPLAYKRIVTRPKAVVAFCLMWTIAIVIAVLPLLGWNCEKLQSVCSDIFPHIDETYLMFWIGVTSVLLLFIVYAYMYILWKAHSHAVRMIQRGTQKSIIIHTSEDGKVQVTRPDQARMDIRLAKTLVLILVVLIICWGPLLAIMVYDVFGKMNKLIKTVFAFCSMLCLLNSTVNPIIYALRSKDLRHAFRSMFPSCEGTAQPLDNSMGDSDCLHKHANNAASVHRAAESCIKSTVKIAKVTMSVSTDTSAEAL
T5 sequence (P34972 whole entry): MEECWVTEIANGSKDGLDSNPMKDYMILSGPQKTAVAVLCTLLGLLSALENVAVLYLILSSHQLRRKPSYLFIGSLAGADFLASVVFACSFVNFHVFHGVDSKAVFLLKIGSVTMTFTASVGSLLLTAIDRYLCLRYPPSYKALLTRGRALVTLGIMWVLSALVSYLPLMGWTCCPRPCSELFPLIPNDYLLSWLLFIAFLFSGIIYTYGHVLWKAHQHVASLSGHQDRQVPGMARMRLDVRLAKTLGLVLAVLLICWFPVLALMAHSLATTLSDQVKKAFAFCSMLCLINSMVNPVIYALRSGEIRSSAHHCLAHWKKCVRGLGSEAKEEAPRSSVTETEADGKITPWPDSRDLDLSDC
T4 sequence (Q9Y2T6 whole entry): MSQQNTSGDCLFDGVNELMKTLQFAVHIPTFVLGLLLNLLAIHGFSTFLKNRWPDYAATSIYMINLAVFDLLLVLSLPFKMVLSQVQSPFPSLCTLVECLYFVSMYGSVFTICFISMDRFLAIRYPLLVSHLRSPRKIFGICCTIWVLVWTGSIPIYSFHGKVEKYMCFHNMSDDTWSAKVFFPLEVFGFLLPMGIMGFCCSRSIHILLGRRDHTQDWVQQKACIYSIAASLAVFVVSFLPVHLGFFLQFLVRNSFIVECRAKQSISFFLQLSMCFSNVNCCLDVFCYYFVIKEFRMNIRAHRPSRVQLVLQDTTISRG
Sequence of CAAX prenyl protease 2 (Saccharomyces cerevisiae S288c, UniProt Q03530) (Q03530 whole entry): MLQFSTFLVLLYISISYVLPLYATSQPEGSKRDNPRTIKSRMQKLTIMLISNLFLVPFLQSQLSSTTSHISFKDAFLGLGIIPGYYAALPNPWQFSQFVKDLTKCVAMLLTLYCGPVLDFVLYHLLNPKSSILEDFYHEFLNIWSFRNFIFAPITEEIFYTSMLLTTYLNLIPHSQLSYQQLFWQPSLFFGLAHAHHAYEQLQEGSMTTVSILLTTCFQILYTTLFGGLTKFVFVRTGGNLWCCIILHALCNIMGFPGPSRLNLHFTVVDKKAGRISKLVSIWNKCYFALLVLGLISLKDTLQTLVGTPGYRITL
Sequence of Hexokinase (Q38C41 whole entry): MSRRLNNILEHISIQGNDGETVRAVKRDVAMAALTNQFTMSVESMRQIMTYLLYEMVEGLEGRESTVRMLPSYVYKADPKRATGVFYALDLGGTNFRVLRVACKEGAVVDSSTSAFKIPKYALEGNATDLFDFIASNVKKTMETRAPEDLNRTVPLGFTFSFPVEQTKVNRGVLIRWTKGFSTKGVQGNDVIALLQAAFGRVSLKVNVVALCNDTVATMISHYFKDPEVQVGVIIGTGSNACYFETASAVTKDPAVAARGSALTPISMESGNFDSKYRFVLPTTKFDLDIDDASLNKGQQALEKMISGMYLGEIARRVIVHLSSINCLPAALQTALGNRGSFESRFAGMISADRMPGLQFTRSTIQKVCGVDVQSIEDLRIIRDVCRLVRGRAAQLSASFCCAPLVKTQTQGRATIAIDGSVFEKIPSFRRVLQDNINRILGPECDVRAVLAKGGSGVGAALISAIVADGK
Sequence of Dual specificity protein phosphatase 3 (P51452 whole entry): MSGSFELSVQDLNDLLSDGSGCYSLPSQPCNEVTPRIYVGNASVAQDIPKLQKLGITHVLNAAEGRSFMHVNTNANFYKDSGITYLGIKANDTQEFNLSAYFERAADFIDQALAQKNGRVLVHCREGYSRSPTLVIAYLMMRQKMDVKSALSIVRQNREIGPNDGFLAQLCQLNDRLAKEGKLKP
Sequence of Integrin alpha-4 (P13612 whole entry): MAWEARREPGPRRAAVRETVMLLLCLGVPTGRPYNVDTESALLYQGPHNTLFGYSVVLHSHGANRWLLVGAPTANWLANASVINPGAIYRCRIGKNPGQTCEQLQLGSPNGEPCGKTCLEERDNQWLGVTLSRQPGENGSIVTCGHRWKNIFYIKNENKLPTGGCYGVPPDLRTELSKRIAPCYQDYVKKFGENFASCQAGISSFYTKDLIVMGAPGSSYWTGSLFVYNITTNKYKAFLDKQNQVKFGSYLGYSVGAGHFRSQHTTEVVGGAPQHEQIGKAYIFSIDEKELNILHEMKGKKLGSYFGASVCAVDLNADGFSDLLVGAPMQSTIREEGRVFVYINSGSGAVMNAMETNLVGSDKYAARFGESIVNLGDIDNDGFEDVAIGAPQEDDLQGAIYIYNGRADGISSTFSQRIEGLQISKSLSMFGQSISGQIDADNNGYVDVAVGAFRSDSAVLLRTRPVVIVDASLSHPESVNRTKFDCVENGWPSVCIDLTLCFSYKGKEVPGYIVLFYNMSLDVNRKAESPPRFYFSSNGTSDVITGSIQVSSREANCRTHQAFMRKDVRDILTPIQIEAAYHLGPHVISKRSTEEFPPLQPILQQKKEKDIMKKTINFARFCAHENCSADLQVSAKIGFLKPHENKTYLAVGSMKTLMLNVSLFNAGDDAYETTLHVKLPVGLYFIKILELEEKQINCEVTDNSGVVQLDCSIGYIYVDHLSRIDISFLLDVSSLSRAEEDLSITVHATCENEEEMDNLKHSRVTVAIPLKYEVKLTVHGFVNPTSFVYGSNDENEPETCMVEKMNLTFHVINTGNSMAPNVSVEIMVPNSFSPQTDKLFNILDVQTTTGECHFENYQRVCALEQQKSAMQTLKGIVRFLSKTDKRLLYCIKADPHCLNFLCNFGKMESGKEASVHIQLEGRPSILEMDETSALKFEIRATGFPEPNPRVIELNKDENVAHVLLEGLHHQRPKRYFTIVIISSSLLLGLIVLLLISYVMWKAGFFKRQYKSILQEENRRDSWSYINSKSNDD
Sequence of DNA damage-inducible transcript 3 protein (P35639 whole entry): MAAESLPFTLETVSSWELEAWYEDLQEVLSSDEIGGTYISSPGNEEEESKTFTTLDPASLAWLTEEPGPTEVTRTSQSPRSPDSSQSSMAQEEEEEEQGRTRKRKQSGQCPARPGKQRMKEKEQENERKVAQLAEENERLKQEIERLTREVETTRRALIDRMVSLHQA

## COc1ccc(N2CCN(C(=O)Nc3ccc(S(N)(=O)=O)cc3)CC2)cc1
[1]
  IC50: > 100 µM (inactive)
[2]
  IC50: 51 µM (active)

## CCOc1cccc(CN2CCN(c3cccc(C(F)(F)F)c3)CC2)c1O
[3]
  Absolute IC50 (CHOP): 10 µM

## CCN(CC)c1ccc(-c2nn3c(-c4[nH]nc5c4CCC5)nnc3s2)cc1
[4]
  EC50: 0.377 µM (active)
[5]
  IC50: 61.1 µM (inactive)
[6]
  EC50: 0.75 µM (active)
J774.A1
  IC50: 0.667 µM (active)
[7]
  EC50: 1.21 µM (active)
cells
  EC50: 0.859 µM (active)
[8]
  IC50: > 20 µM (inactive)
[9]
  EC50: 0.972 µM (active)
[10]
  EC50: < 0.1 µM (active)
[11]
  EC50: 1.06 µM (active)
[12]
  EC50: 0.294 µM (active)

## COc1cccc(-c2sc3ccccc3c2-c2ccc(OCCN3CCCC3)cc2)c1
[13]
  AC50: 2.58 µM (active)
Integrin alpha-4
  EC50: > 42.9 µM (inactive)
[14]
  IC50: > 20 µM (inactive)
[15]
  AC50: 49.2 µM (active)

## CC1=CC(=C(C#N)C#N)C=C(C)N1Cc1ccc(Cl)cc1
Troponin, cardiac muscle
  EC50: > 71.5 µM (inactive)

## Cc1cccc(N2CCN(C(=O)c3cc(S(=O)(=O)N(C)C)ccc3Cl)CC2)c1C
[16]
  IC50: > 32 µM (inactive)
[17]
  EC50: 1.53 µM (active)
Cannabinoid receptor 2 [18]
  EC50: > 32 µM (inactive)
[19]
  EC50: > 32 µM (inactive)
Cannabinoid receptor 1 [20]
  IC50: 15.6 µM (inactive)
Cannabinoid receptor 1 [21]
  EC50: > 32 µM (inactive)
Cannabinoid receptor 2 [22]
  IC50: > 32 µM (inactive)

## c1ccc2c(-c3c[nH]c4ccccc34)c3ccccc3nc2c1
Streptokinase A
  EC50: > 150 µM (not active)
[23]
  IC50: 4.83 µM (active)
[24]
  EC50: 8.94 µM (active)
Streptococcus
  EC50: 15.8 µM (active)

## COc1ccc(C(=O)NC(C(=O)O)c2ccccc2)cc1 (stereo not given)
Hexokinase
  IC50: > 25 µM (inactive)

## CN1c2ccccc2-c2nc3ccccc3n2C1c1ccncc1 (stereo not given)
CAAX prenyl protease 2 [25]
  AC50: 2.65 µM (active)
CAAX prenyl protease 2 [26]
  AC50: 68.9 µM (active)

## CC1=CC(=NOC(=O)c2cccc([N+](=O)[O-])c2)C=C(C)C1=O
Coagulation factor XII
  IC50: 1.94 µM (active)

## CCCCC1=CC2=CC(=O)C(C)(OC(=O)CC)C(=O)C2=CN1C1CCCCC1 (stereo not given)
[27]
  EC50: > 100 µM (inactive)
